Tests used:
young fibroblasts (HDF) = experiment: CCK-8 cell survival, young human fibroblasts; assay type: cell-based; conditions: young cells, increasing concentration of salinomycin; FIG. 2A, 2D
Method: (§1) After each sample was dissolved in DMSO, young cells, replicative senescent cells and senescent cells in which premature aging was induced by treating with doxorubicin were treated with 100 nM salinomycin, 100 nM rapamycin, 100 nM ABT263. After incubation for 4 days in a 37° C., 5% CO2 incubator, the degree of cell survival was confirmed by CCK-8 analysis, the degree of cellular aging was confirmed by senescence-associated β-galactosidase (SAβG) staining, p53 and p16 protein expression analysis.
(§2) Young cells (1×10^3 cells/well) or senescent cells (2×10^3 cells/well) were dispensed into a 96-well plate, and cultured overnight in a 37° C., 5% CO2 incubator. Salinomycin, ABT263 and rapamycin were treated at each concentration, and then incubated for 4 days in a 37° C., 5% CO2 incubator. 10 μl of CCK-8 reagent (Dojindo Molecular Technologies Inc., Kumamoto, Japan) was added to each well, and incubated for 2 hours in an incubator. Then, the absorbance was measured at 450 nm using a Microplate reader.
The degree of cell survival was expressed as a relative value for the absorbance of the control group treated with only DMSO as 100%.

[1] = tested on: premature senescent retinal pigmented epithelial cells (ARPE) by doxorubicin; experiment: CCK-8 cell survival, doxorubicin-induced premature senescent retinal pigmented epithelial cells; assay type: cell-based, human; conditions: 100 nM, 4 days; compared to DMSO-treated group; FIG. 5A, 5B
Method: (§3) Each cell was treated in a serum-free culture solution containing doxorubicin (0.5 μM) for 4 hours. After washing the cells with a serum-free culture solution, the cells were cultured for 4 days in a culture solution containing 10% FBS, and then cellular aging was confirmed by measuring the level of senescence by staining with senescence-associated beta galactosidase.
as §1
as §2, with “10 μl of CCK-8 reagent (Dojindo Molecular Technologies Inc., Kumamoto, Japan) was added to each well, and incubated for 2 hours in an incubator.” left out
(§4) The degree of cell survival was expressed as a relative value for the absorbance of the control group treated with only DMSO as 100%. […]

[2] = tested on: premature senescent renal tubular cells (HK2) by doxorubicin; experiment: CCK-8 cell survival, doxorubicin-induced premature senescent HK2 cells; assay type: cell-based, human; conditions: 100 nM, 4 days; compared to DMSO-treated group; FIG. 6A-6C
Method: as §3, §1
as §2, with “10 μl of CCK-8 reagent (Dojindo Molecular Technologies Inc., Kumamoto, Japan) was added to each well, and incubated for 2 hours in an incubator.” left out
as §4

[3] = tested on: renal fibrosis induced by renal ischemia-reperfusion injury; assay type: in vivo, C57BL/6J mice; conditions: compared to PBS group
Method: Animal experiments were performed with the approval of the Animal Experimental Ethics Committee, Yeungnam University College of Medicine (YUMC-AEC2018-024). C57BL/6J 8-week-old male mice were anesthetized by intraperitoneal injection of 2.5% Avertin (0.025 ml/g body weight). The mouse was placed on a hot plate at 37° C., and the left flank was incised to expose the left kidney. The renal arteriovenous blood vessels were ligated with a microaneurism clamp (Roboz), and whether the blood vessels were blocked or not was confirmed by the color of the kidneys. During the induction of ischemia, the body temperature of the mice was maintained at 36.5-37.5° C. After 35 minutes, the clamp was removed and it was confirmed that reperfusion occurred.
As a control, renal arteriovenous vessels were not ligated, and the rest was performed in the same manner as above. From 4 days after ischemia-reperfusion injury, 2.5 μl of 10 mM salinomycin was diluted in 100 μl of phosphate buffer solution at intervals of 2 days and injected into the abdominal cavity 3 times (Sal group). […] Three mice were used for each group.
The left kidney in which ischemia-reperfusion injury was induced, was excised in half and fixed in 10% formalin solution or stored frozen in liquid nitrogen.
In order to evaluate kidney function due to ischemia-reperfusion injury, creatinine and blood urea nitrogen (BUN) concentrations in plasma and urine were measured.
Blood was collected from the retro-orbital vascular plexus of the mouse using a heparin capillary tube, and plasma was separated. Plasma creatinine was measured by QuantiChrom™ creatinine assay kit (DICT-500; BioAssay Systems, Hayward, CA, USA), and BUN was investigated by measuring absorbance at 490 nm and 450 nm by a spectrophotometer, respectively by BUN colorimetric detection kit (Arbor Assays, Ann Arbor, Michigan, USA). […]
RIPA buffer was added to the tissue and pulverized with WiseTis homogenizer HG-15D (DAIHAN Scientific, Seoul, South Korea). Centrifugation was performed at 12,000 rpm at 4° C. for 20 minutes, and the supernatant was transferred to a new tube. The protein concentration of the supernatant was quantified by the BCA method.
After electrophoresis (SDS-PAGE) of 30 μg of protein, Western blot analysis was performed. After electrophoresis, the protein was transferred from the gel to a polyvinylidene fluoride membrane (Pall Corporation). The membrane was treated with a 5% Difco™ skim milk solution (Becton, Dickinson and Company, USA) for 2 hours at room temperature, and the primary antibody was added, followed by reaction at room temperature for 2 hours.
As the primary antibody, anti-p53 antibody, anti-p16 antibody, anti-actin antibody and anti-GAPDH antibody were purchased from Santa Cruz Biotechnology, Inc. Anti-phosphorylated-Rb antibody was obtained from New England Biolabs (Ipswich, MA, USA), and the anti-SOD2 antibody and anti-catalase antibody were obtained from Bioworld Technology Inc. (Louis Park, MN, USA), anti-HNE antibody, anti-α-smooth muscle actin antibody, and anti-type I collagen antibody were purchased from Abcam (Cambridge, UK).
The tissue fixed in 10% formalin solution was embedded with paraffin and cut into 4 μm to prepare a tissue sample. After removing paraffin from the tissue sample, hematoxylin-eosin staining, trichrome staining, and PAS staining were performed.
The degree of fibrosis was measured by analyzing the degree of collagen staining using the i-Solution™ software program (IMT Inc., Canada) after trichrome staining and the degree of cell senescence in tissue samples was investigated by staining lipofuscin with Sudan black B (Viegas M S, et al., European journal of histochemistry: EJH. 2007). The degree of peritoneal fibrosis was confirmed by measuring the submesothelial thickness of the peritoneal mesothelial cell layer using the NIH Image J program. […]

[4] = kidney tissue, antioxidant enzyme
[5] = kidney tissue, fibrosis marker, FIG. 7L, 7M

CC[C@@H](C(=O)[C@@H](C)[C@@H](O)[C@H](C)[C@@H]1O[C@@H]([C@@H](CC)C(=O)O)CC[C@@H]1C)[C@H]1O[C@]2(C=C[C@@H](O)[C@]3(CC[C@@](C)([C@H]4CC[C@](O)(CC)[C@H](C)O4)O3)O2)[C@H](C)C[C@@H]1C [salinomycin]
cell survival (CCK-8) (young fibroblasts (HDF)): no change | cell survival (CCK-8) [1]: significantly (p<0.01) reduced | survival (CCK-8) [2]: no change | plasma creatinine ([3]; i.p. 3 times at 2-day intervals from day 4, FIG. 7C): decreased | plasma BUN ([3]; i.p. 3 times at 2-day intervals from day 4, FIG. 7D): decreased | expression of SOD2 (Western blot) [3, 4]: increased | expression of catalase (Western blot) [3, 4]: increased | expression of pRb (Western blot) ([3]; kidney tissue, cell proliferation marker, FIG. 7L, 7M): decreased | expression of p16 (Western blot) ([3]; kidney tissue, cellular aging marker, FIG. 7K): marked decrease | expression of p53 (Western blot) ([3]; kidney tissue, cellular aging marker, FIG. 7L, 7M): decreased | Sudan Black B (lipofuscin) staining intensity ([3]; kidney tissue, cellular senescence, FIG. 7G): decreased | expression of type 1 collagen (COL1) (Western blot) [3, 5]: decreased | expression of α-SMA (Western blot) [3, 5]: decreased | expression of 4-HNE (Western blot) ([3]; kidney tissue, oxidative stress marker, FIG. 7K): marked decrease | lipid peroxides in tissue ([3]; kidney tissue, FIG. 7H): significantly reduced | MDA in tissue ([3]; kidney tissue, FIG. 7I): significantly reduced | superoxides in tissue ([3]; kidney tissue, FIG. 7J): decreased | degree of tissue fibrosis by trichrome staining ([3]; kidney, FIG. 7E, 7F): significantly reduced | damage to the renal tubules ([3]; renal tissue specimen, FIG. 7E, 7F): significantly reduced

— patent US12083093B2, “Composition for preventing or treating cellular senescence-related diseases comprising salinomycin as effective component” (RESEARCH COOPERATION FOUNDATION OF YEUNGNAM UNIVERSITY, priority 2018, dated 2024)
